The subject of assay [1] is PR Ser294 phosphorylation. Nature of the assay: Breast tumor explants, phospho-Ser294 PR IHC. Conditions: progesterone 10 nM, 2 hours, IHC, n=6. It counts as cell-based, human.
Description: De-identified breast tumor samples were collected after surgery and immediately processed for tissue explant maintenance on sponges in cell culture medium, as previously described (Ravindranathan et al. Nature Communications 2013, 4:1923). Samples were derived from six patients pathologically diagnosed with invasive ductal carcinoma (IDC) and scored positive for ER (94-100%) and PR (1-100%), and negative for HER2 expression. […] In additional experiments, six explants were similarly treated with estrogen or progesterone (2 hours) but in combination with 1 uM U0126 (to inhibit ERKs 1/2) and phospho-Ser294 PR levels were measured by IHC.
ER+ luminal tumors were maintained as explants as above and instead treated with either vehicle or progesterone (10 nM) for 2 hours in the presence or absence of the MEK1/2 inhibitor U0126 (1 nM) prior to IHC staining using specific antibodies for total and phospho-Ser294 PR as well as ER-alpha and phospho-ERK1/2 (n=6; see Methods).
In assay [2] the test system is T47D cells. Nature of the assay: Mammosphere formation in T47D cells. It counts as cell-based, human. The conditions noted are these: T47D EV, WT, KR or S294A PR-B; estrogen 1 nM, progesterone 10 nM; 14 days. The method, then:
Primary Mammospheres: Adherent cells were washed with PBS and dissociated enzymatically in 0.25% trypsin-EDTA (Invitrogen Corporation, Carlsbad, Calif.). Cells were sieved through a 40-μm sieve (BD FALCON, BD Biosciences, Bedford, Mass.) and analyzed microscopically for single-cellularity. Single cells were plated in ultra-low attachment plates (Corning, Inc., Corning, N.Y.) and cultured in a humid incubator. Cells were grown in a serum-free mammary epithelial basal medium (MEBM; Lonza Group, Basel, Switzerland) containing 1% B27 Supplement (Invitrogen Corporation, Carlsbad, Calif.), 1% penicillin-streptomycin (Invitrogen Corporation, Carlsbad, Calif.), 5 μg/ml insulin (Invitrogen Corporation, Carlsbad, Calif.), 20 ng/ml EGF (Sigma-Aldrich, St. Louis, Mo.), 1 ng/ml hydrocortisone (Sigma-Aldrich, St. Louis, Mo.), and 100 μM β-mercaptoethanol. […] Mammosphere Forming Efficiency (MFE) % was calculated by the number of mammospheres per well/number of cells seeded per well.
Secondary Mammospheres: Primary mammospheres were collected by centrifugation (5 min, 1000 rpm), and dissociated enzymatically in 0.25% typsin-EDTA. Cells were sieved through a 40-μm tip strainer (Bel-Art SP Scienceware, South Wayne, N.J.) and analyzed microscopically for single-cellularity. […] Mammosphere Forming Efficiency (MFE) % was calculated by the number of mammospheres per well/number of cells seeded per well. […]

Assay [3] deals with breast cancer. The conditions noted are these: human, in vivo; cited from earlier work.

The values that follow come from patent US10942183B2, “Methods of detecting progesterone receptor and of detecting an expression level” (REGENTS OF THE UNIVERSITY OF MINNESOTA, priority 2017, dated 2021).

Molecules are shown by their SMILES.

`CC(=O)[C@H]1CC[C@H]2[C@@H]3CCC4=CC(=O)CC[C@]4(C)[C@H]3CC[C@]12C` [progesterone]: the “PR Ser294 phosphorylation in tumor explants” value in assay [1] is listed as “induced robust PR Ser294 phosphorylation”. Besides, the “total numbers of primary and secondary mammospheres on addition of hormone to culture media” value in assay [2] is recorded as “had no significant effect on total numbers in any condition”.

Turning to `CC#C[C@]1(O)CC[C@H]2[C@@H]3CCC4=CC(=O)CCC4=C3[C@@H](c3ccc(N(C)C)cc3)C[C@@]21C` [mifepristone], in assay [3], the “outcome in clinical trials for breast cancer” value is recorded as “has not been successful”.
